Reference: patent US20230265247A1, “PROCESS FOR PREPARING POLYIMIDES” (Technische Universität Wien, priority 2020, published 2023)

Assay: Water solubility of the diamines, literature values
Type: physicochemical
Conditions: ratio of cited solubilities

| Molecule | water solubility less by a factor, versus 4,4′-methylene-bis(cyclohexylamine) |
| --- | --- |
| CC1CC(CC2CCC(N)C(C)C2)CCC1N (stereo not shown) [4,4′-methylene-bis(2-methylcyclohexylamine)] | 45 |

Assay: not given
Conditions: salts of 1,2,3,4-butanetetracarboxylic acid; 1 ml distilled water with around 20 to 40% by weight of salt, stirred 15 minutes

| Molecule | Salt is water-soluble |
| --- | --- |
| Nc1n[nH]c(N)n1 [Example V38] | no |
| Tricyclo[5.2.1.0^2,6]decane-3(4),8(9)-bis(methanammonium)-dihydrogen-1,2,3,4-butane-tetracarboxylate [Example B20] | yes |
| Nc1ccc(Cc2ccc(N)cc2)cc1 [Example V39] | no |

Same assay, conditions: salts of 1,2,3,4-cyclobutanetetracarboxylic acid; 1 ml distilled water with around 20 to 40% by weight of salt, stirred 15 minutes

| Molecule | Salt is water-soluble |
| --- | --- |
| NCCCCN.O=C(O)C1C(C(=O)O)C(C(=O)O)C1C(=O)O (stereo not shown) [Example V42] | yes |
| NCc1cccc(CN)c1.O=C(O)C1C(C(=O)O)C(C(=O)O)C1C(=O)O (stereo not shown) [Example V55] | yes |
| Tricyclo[5.2.1.0^2,6]decane-3(4),8(9)-bis(methanammonium)-dihydrogen-1,2,3,4-cyclobutanetetracarboxylate [Example B22] | yes |
| CC1(C)CC(N)CC(C)(CN)C1.O=C(O)C1C(C(=O)O)C(C(=O)O)C1C(=O)O (stereo not shown) [Example V54] | yes |
| NCC1CC2CC1CC2CN.O=C(O)C1C(C(=O)O)C(C(=O)O)C1C(=O)O (stereo not shown) [Example B21, Norbornane bis(methylammonium)-dihydrogen-1,2,3,4-cyclobutanetetracarboxylate] | yes |

Same assay, conditions: salts of 1,2,3,4-cyclopentanetetracarboxylic acid; 1 ml distilled water with around 20 to 40% by weight of salt, stirred 15 minutes

| Molecule | Salt is water-soluble |
| --- | --- |
| CC(CN)CCCN.O=C(O)C1CC(C(=O)O)C(C(=O)O)C1C(=O)O (stereo not shown) [Example V60] | yes |
| NCC1CC2CC1CC2CN.O=C(O)C1CC(C(=O)O)C(C(=O)O)C1C(=O)O (stereo not shown) [Example B23, Norbornane bis(methylammonium)-dihydrogen-1,2,3,4-cyclopentanetetracarboxylate] | yes |
| Tricyclo[5.2.1.0^2,6]decane-3(4),8(9)-bis(methanammonium)-dihydrogen-1,2,3,4-cyclopentanetetracarboxylate [Example B24] | yes |
| CC1(C)CC(N)CC(C)(CN)C1.O=C(O)C1CC(C(=O)O)C(C(=O)O)C1C(=O)O (stereo not shown) [Example V69] | yes |
| NCCCCN.O=C(O)C1CC(C(=O)O)C(C(=O)O)C1C(=O)O (stereo not shown) [Example V57] | yes |
| NCCCCCCCCCN.O=C(O)C1CC(C(=O)O)C(C(=O)O)C1C(=O)O (stereo not shown) [Example V63] | yes |

Same assay, conditions: salts of 1,2,4,5-cyclohexanetetracarboxylic acid; 1 ml distilled water with around 20 to 40% by weight of salt, stirred 15 minutes

| Molecule | Salt is water-soluble |
| --- | --- |
| NCc1cccc(CN)c1 [Example V85] | yes |
| Norbornane bis(methylammonium)-dihydrogen-1,2,4,5-cyclohexanetetracarboxylate [Example B25] | yes |
| Tricyclo[5.2.1.0^2,6]decane-3(4),8(9)-bis(methanammonium)-dihydrogen-1,2,4,5-cyclohexanetetracarboxylate [Example B26] | yes |
| NCCCCN.O=C(O)C1CC(C(=O)O)C(C(=O)O)CC1C(=O)O (stereo not shown) [Example V72] | yes |
| CC1(C)CC(N)CC(C)(CN)C1.O=C(O)C1CC(C(=O)O)C(C(=O)O)CC1C(=O)O (stereo not shown) [Example V84] | yes |
| NCCCCCCCCCN.O=C(O)C1CC(C(=O)O)C(C(=O)O)CC1C(=O)O (stereo not shown) [Example V78] | yes |

Same assay, conditions: salts of 3,3′,4,4′-benzophenonetetracarboxylic acid; 1 ml distilled water with around 20 to 40% by weight of salt, stirred 15 minutes

| Molecule | Salt is water-soluble |
| --- | --- |
| Nc1cccc(N)n1 [Example V104] | no |
| CC1CC(CC2CCC(N)C(C)C2)CCC1N.O=C(c1ccc(C(=O)O)c(C(=O)O)c1)c1ccc(C(=O)O)c(C(=O)O)c1 [Example V97] | yes |
| NCCCCCCCCCCCCN.O=C(c1ccc(C(=O)O)c(C(=O)O)c1)c1ccc(C(=O)O)c(C(=O)O)c1 [Example V94] | no |
| Norbornane bis(methylammonium)-dihydrogen-3,3′,4,4′-benzophenonetetracarboxylate [Example B27] | yes |
| NCCCCN.O=C(c1ccc(C(=O)O)c(C(=O)O)c1)c1ccc(C(=O)O)c(C(=O)O)c1 [Example V86] | no |
| CC(C)(CN)CN.O=C(c1ccc(C(=O)O)c(C(=O)O)c1)c1ccc(C(=O)O)c(C(=O)O)c1 [Example V88] | yes |
| CC1(C)CC(N)CC(C)(CN)C1.O=C(c1ccc(C(=O)O)c(C(=O)O)c1)c1ccc(C(=O)O)c(C(=O)O)c1 [Example V95] | yes |
| Tricyclo[5.2.1.0^2,6]decane-3(4),8(9)-bis(methanammonium)-dihydrogen-3,3′,4,4′-benzophenonetetracarboxylate [Example B28] | yes |

Same assay, conditions: salts of tetrahydrofuran-2,3,4,5-tetracarboxylic acid; 1 ml distilled water with around 20 to 40% by weight of salt, stirred 15 minutes; no = no clear solution

| Molecule | Salt is water-soluble |
| --- | --- |
| NCCCCCN.O=C(O)C1OC(C(=O)O)C(C(=O)O)C1C(=O)O (stereo not shown) [Example B3, Pentane-1,5-diammonium-dihydrogen-tetrahydrofuran-2,3,4,5-tetracarboxylate] | yes |
| NCCCCCCCCCN.O=C(O)C1OC(C(=O)O)C(C(=O)O)C1C(=O)O (stereo not shown) [Example B9, Nonane-1,9-diammonium-dihydrogen-tetrahydrofuran-2,3,4,5-tetracarboxylate] | yes |
| NCCCCCCCCN.O=C(O)C1OC(C(=O)O)C(C(=O)O)C1C(=O)O (stereo not shown) [Example B8, Octane-1,8-diammonium-dihydrogen-tetrahydrofuran-2,3,4,5-tetracarboxylate] | yes |
| CC1(C)CC(N)CC(C)(CN)C1.O=C(O)C1OC(C(=O)O)C(C(=O)O)C1C(=O)O (stereo not shown) [Example B16, Isophorone diammonium-dihydrogen-tetrahydrofuran-2,3,4,5-tetracarboxylate] | yes |
| NC1CCC(N)CC1.O=C(O)C1OC(C(=O)O)C(C(=O)O)C1C(=O)O (stereo not shown) [Example B12, Cyclohexane-1,4-diammonium-dihydrogen-tetrahydrofuran-2,3,4,5-tetracarboxylate] | yes |
| NC1CCCC(N)C1.O=C(O)C1OC(C(=O)O)C(C(=O)O)C1C(=O)O (stereo not shown) [Example B11, Cyclohexane-1,3-diammonium-dihydrogen-tetrahydrofuran-2,3,4,5-tetracarboxylate] | yes |
| Cc1ccc(N)cc1N [Example V7] | no |
| CC(C)(CN)CN.O=C(O)C1OC(C(=O)O)C(C(=O)O)C1C(=O)O (stereo not shown) [Example B4, 2,2-Dimethylpropane-1,3-diammonium-dihydrogen-tetrahydrofuran-2,3,4,5-tetracarboxylate] | yes |
| CC(CN)CCCN.O=C(O)C1OC(C(=O)O)C(C(=O)O)C1C(=O)O (stereo not shown) [Example B6, 2-Methylpentane-1,5-diammonium-dihydrogen-tetrahydrofuran-2,3,4,5-tetracarboxylate] | yes |
| Nc1ccc(Cc2ccc(N)cc2)cc1.O=C(O)C1OC(C(=O)O)C(C(=O)O)C1C(=O)O (stereo not shown) [Example V11] | no |
| NCCCCCCCN.O=C(O)C1OC(C(=O)O)C(C(=O)O)C1C(=O)O (stereo not shown) [Example B7, Heptane-1,7-diammonium-dihydrogen-tetrahydrofuran-2,3,4,5-tetracarboxylate] | yes |
| Cc1cc(-c2ccc(N)c(C)c2)ccc1N [Example V12] | no |
| NCCCCN.O=C(O)C1OC(C(=O)O)C(C(=O)O)C1C(=O)O (stereo not shown) [Example B2, Butane-1,4-diammonium-dihydrogen-tetrahydrofuran-2,3,4,5-tetracarboxylate] | yes |
| NCC1CCC(CN)CC1.O=C(O)C1OC(C(=O)O)C(C(=O)O)C1C(=O)O (stereo not shown) [Example B14, Cyclohexane-1,4-bis(methanammonium)-dihydrogen-tetrahydrofuran-2,3,4,5-tetracarboxylate] | yes |
| NC1CCC(CC2CCC(N)CC2)CC1.O=C(O)C1OC(C(=O)O)C(C(=O)O)C1C(=O)O (stereo not shown) [Example V2] | no |
| CC1CC(CC2CCC(N)C(C)C2)CCC1N.O=C(O)C1OC(C(=O)O)C(C(=O)O)C1C(=O)O (stereo not shown) [Example B18, 4,4′-Methylene-bis(2-methylcyclohexylammonium)-dihydrogen-tetrahydrofuran-2,3,4,5-tetracarboxylate] | yes |
| NCC1CCCC(CN)C1.O=C(O)C1OC(C(=O)O)C(C(=O)O)C1C(=O)O (stereo not shown) [Example B13, Cyclohexane-1,3-bis(methanammonium)-dihydrogen-tetrahydrofuran-2,3,4,5-tetracarboxylate] | yes |
| Nc1cccc(N)n1.O=C(O)C1OC(C(=O)O)C(C(=O)O)C1C(=O)O (stereo not shown) [Example V9] | no |

Assay: not given
Conditions: according to perflavory.com; cited from earlier work

| Molecule | water solubility of the diamine |
| --- | --- |
| CC1CC(CC2CCC(N)C(C)C2)CCC1N (stereo not shown) [4,4′-methylene-bis(2-methylcyclohexylamine)] | around 88 mg/l |

Same assay, conditions: cited in Wikipedia; cited from earlier work

| Molecule | water solubility of the diamine |
| --- | --- |
| NC1CCC(CC2CCC(N)CC2)CC1 (stereo not shown) [4,4′-methylene-bis(cyclohexylamine)] | about 4 g/l |
